One test concerns estrogen receptor. The test is described as follows: ERE luciferase assay in T47D-KBluc cells. Conditions: Homo sapiens, 24 hours, read-out: ER Target Engagement IC50. The test is classed as cell-based. On the procedure: 1. ERE Luciferase Assay for Compounds in Table 2
T47D-1(Bluc cells (ATCC® ECRL 2 65, T47D human breast cancer cells stably transfected with estrogen responsive element/promoter/luciferase reporter gene) were seeded into 96-well white opaque plates in IR: PM growth medium supplemented with 10% fetal bovine serum (FBS) and allowed to adhere overnight in a 37° C. humidified incubator. The following day, cells were treated with PROTACs in a 12-point concentration curve (top final concentration of 300 nM with subsequent concentrations being 3-fold less with […] being the lowest concentration in the assay). Each PROTAC was tested independently in two experiments on 96-well plates. After 24 hours, media was removed and lysis buffer was added to the wells. Following lysis, Bright-Glo™ Luciferase Assay Substrate (Promega, Madison WI) was added and the luciferase activity was measured using a Cytation 3 plate reader (BioTek™, Winooski, VT). Each compound was assayed in duplicate and the activity was calculated as […] using GraphPad Prism software (San Diego, CA).

For test [1], the target named is estrogen receptor-alpha (ERα) (Homo sapiens (Human), UniProt P03372). The test is described as follows: Estrogen receptor-alpha (ERα) degradation assay in MCF7 cells (In-Cell Western / western blot). The test is classed as cell-based. Conditions: % degraded, read-out: ER Degradation Dmax. On the procedure:
2. Estrogen Receptor-Alpha (ERα) Degradation Assay in MCF-7 Cells Using Western Blot Method for Table 5
The exemplary novel ERα degraders were assessed for their activity in degrading ERα in MCF-7 cells via western blot. The assay was carried out in the presence of 10% FBS or high percentage of human or mouse serum. Protocols of the western blot assay are described below.
MCF7 cells were grown in DMEM/F12 with 10% FBS and seeded at 24,000 cells per well in 100 μl into 96-well clear tissue culture plates. The following day, the cells were treated with PROTACs in a […] concentration curve with 100 nM being the top concentration and serial dilutions to make the other concentrations (30 nM, 10 nM. 3 nM, 1 nM, and 0.3 nM). At all concentrations, 0.01% DMSO is the final concentration in the well. The following day, the plates are aspirated, washed with 50 μl of cold PBS. The cells are lysed with 50 μl/well 4° C. Cell Lysis Buffer (Catalog #9803; Cell Signaling Technology, Danvers, MA) (20 mM Tris-HCL (pH 7.5), 150 mM NaCl, 1 mM Na2EDTA, 1 mM EGTA, 1% Triton, 2.5 mM sodium pyrophosphate, 1 mM B-glycerophosphate, 1 mM sodium vanadate, 1 μg/ml leupeptin). Lysates were clarified at 16,000× g for 10 minutes, and 2 μg of protein was subjected to SDS-PAGE analysis and followed by immunoblotting according to standard protocols. The antibodies used were ERα (Cell Signaling, Technologies Catalog #8644), and Tubulin (Sigma Catalog #T9026; St. Louis, MO). Detection reagents were Clarity Western ECL substrate (Bio-Rad Catalog 4170-5060; Hercules, CA).
Alternatively, MCF7 cells were grown in DMEM/F12 with 10% FBS and seeded at 24,000 cells per well in 500 μl in 24-well clear tissue culture plates. The following day, the cells were treated with PROTACs in a 5-point concentration curve (100 nM, 33 nM, 11 nM, 3.7 nM, and 1.2 nM) in the presence of 0.01% DMSO. After 72 hours, the wells are aspirated and washed with 500 μl of PBS. The cells are lysed with 100 μl/well 4° C. Cell Lysis Buffer (Catalog #9803; Cell Signaling Technology, Danvers, MA) (20 mM Tris-HCL (pH 7.5), 150 mM NaCl, 1 mM Na2EDTA, 1 mM EGTA, 1% Triton, 2.5 mM sodium pyrophosphate, 1 mM B-glycerophosphate, 1 mM sodium vanadate, 1 ug/ml leupeptin). Lysates were clarified at 16,000× g for 10 minutes, and 2 μg of protein was subjected to SDS-PAGE analysis and followed by immunoblotting according to standard protocols. The antibodies used were ERα (Cell Signaling Technologies Catalog #8644), and Tubulin (Sigma Catalog #T9026; St. Louis, MO). Detection reagents were Clarity Western ECL substrate (Bio-Rad Catalog 4170-5060; Hercules, CA).
3. Estrogen receptor-alpha (ERα) degradation assay using In-Cell Western™ Assay for Table 5
Degradation of ERα by claimed compounds were determined in MCF7 cells using an In-Cell Western™ assay. Briefly, MCF7 cells were plated in 96-well plates (2000 cells per well in 100 μl media) and incubated at 37° C. under an atmosphere of 5% CO2 in a humidified incubator overnight. One-hundred (100) μl of media containing test compound (at 2× concentration) was added to the appropriate wells to provide 11 serially decreasing concentrations (top final concentration, 1 μM then 3-fold less for the next 10 concentrations); a vehicle control (DMSO) was also added for each compound. For each experiment, all compounds were assayed in duplicate plates. Cells were then incubated for 3 or 5 days in the above-mentioned environment. The assay was terminated by removal of media, a single wash with ice-cold PBS and the addition of […] paraformaldehyde (PFA: 4% in PBS). After 15 minutes in PFA at room temperature, the cells were permeabilized in Tris-phosphate-buffered saline with Tween (0.1%) (TBST) supplemented with Triton X-100 (0.5%) for 15 minutes. Cells were then blocked in BSA (TBST with BSA, 3%) for one hour. […] The cells were incubated overnight at 4° C. […]

SMILES strings stand for the structures. Where two headings read alike, the source gives them in different places.

Chain of estrogen receptor-alpha (ERα) (P03372 whole entry): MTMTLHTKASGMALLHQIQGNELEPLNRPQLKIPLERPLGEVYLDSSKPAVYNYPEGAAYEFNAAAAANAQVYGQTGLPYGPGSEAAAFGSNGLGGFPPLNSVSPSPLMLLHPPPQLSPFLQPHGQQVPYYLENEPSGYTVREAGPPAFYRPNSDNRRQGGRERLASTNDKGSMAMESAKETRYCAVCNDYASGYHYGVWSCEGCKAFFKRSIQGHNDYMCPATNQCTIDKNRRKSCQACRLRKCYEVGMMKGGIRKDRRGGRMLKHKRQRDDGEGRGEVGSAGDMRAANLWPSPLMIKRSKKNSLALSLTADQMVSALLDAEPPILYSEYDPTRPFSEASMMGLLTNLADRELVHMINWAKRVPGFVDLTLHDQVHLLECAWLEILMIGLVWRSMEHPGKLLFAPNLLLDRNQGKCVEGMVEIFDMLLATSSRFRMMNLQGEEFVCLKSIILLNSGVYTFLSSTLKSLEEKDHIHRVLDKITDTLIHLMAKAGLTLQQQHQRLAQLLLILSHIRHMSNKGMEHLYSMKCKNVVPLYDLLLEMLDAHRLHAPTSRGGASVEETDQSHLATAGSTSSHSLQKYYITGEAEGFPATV

As to `O=C1CCC(n2ncc(Oc3ccc(O[C@@H]4CCN(CCOc5ccc([C@@H]6c7ccc(O)cc7CC[C@@H]6c6ccc(F)cc6)cc5)C4)nc3)cc2=O)C(=O)N1` (stereo partly drawn) [PROTAC-103, 3-(4-((6-(((R)-1-(2-(4-((1R,2S)-2-(4-fluorophenyl)-6-hydroxy-1,2,3,4-tetrahydronaphthalen-1-yl)phenoxy)ethyl)pyrrolidin-3-yl)oxy)pyridin-3-yl)oxy)-6-oxopyridazin-1(6H)-yl)piperidine-2,6-dione], the IC50 with estrogen receptor is less than 1 nM. For the same molecule, the Dmax in test [1] (3 day incubation) is not above 50%.
As for `O=C1CCC(n2ncc(Oc3ccc(CCCCCOc4ccc([C@@H]5c6ccc(O)cc6CC[C@@H]5c5ccc(F)cc5)cc4)nc3)cc2=O)C(=O)N1` (mixture of isomers) [PROTAC-99, rac-3-(4-((6-(5-(4-((1R,2S)-2-(4-fluorophenyl)-6-hydroxy-1,2,3,4-tetrahydro-naphthalen-1-yl)phenoxy)pentyl)pyridin-3-yl)oxy)-6-oxopyridazin-1(6H)-yl)piperidine-2,6-dione], the IC50 in the test on estrogen receptor fell in the range of 10 to 100 nM. For the same molecule, in test [1] (5 day incubation), the Dmax is not above 50%.
As to `O=C1CCC(n2ncc(Oc3ccc(O[C@@H]4CCN(CCOc5ccc([C@H]6c7ccc(O)cc7CC[C@H]6c6ccc(F)cc6)cc5)C4)nc3)cc2=O)C(=O)N1` (mixture of isomers) [PROTAC-97, rac-3-(4-((6-(((R)-1-(2-(4-((1S,2R)-2-(4-fluorophenyl)-6-hydroxy-1,2,3,4-tetrahydronaphthalen-1-yl)phenoxy)ethyl)pyrrolidin-3-yl)oxy)pyridin-3-yl)oxy)-6-oxopyridazin-1(6H)-yl)piperidine-2,6-dione], the IC50 with estrogen receptor was 10 to 100 nM. Besides, the Dmax in test [1] (3 day incubation) is not above 50%.
As to `CN(C(=O)c1ccc(N2CCN(CCCCCOc3ccc([C@@H]4c5ccc(O)cc5CC[C@@H]4c4ccccc4)cc3)CC2)cc1)C1CCC(=O)NC1=O` (mixture of isomers) [PROTAC-90, rac-N-(2,6-dioxopiperidin-3-yl)-4-(4-(5-(4-((1R,2S)-6-hydroxy-2-phenyl-1,2,3,4-tetrahydronaphthalen-1-yl)phenoxy)pentyl)piperazin-1-yl)-N-methylbenzamide], the IC50 with estrogen receptor lay within 1 to 10 nM. Besides, the Dmax in test [1] (5 day incubation) was more than 75%.
With `O=C1CCC(NC(=O)c2ccc(N3CCN(CCCCCOc4ccc([C@@H]5c6ccc(O)cc6CC[C@@H]5c5ccccc5)cc4)CC3)cn2)C(=O)N1` (mixture of isomers) [PROTAC-91, rac-N-(2,6-dioxopiperidin-3-yl)-5-(4-(5-(4-((1R,2S)-6-hydroxy-2-phenyl-1,2,3,4-tetrahydronaphthalen-1-yl)phenoxy)pentyl)piperazin-1-yl)picolinamide], the IC50 in the test on estrogen receptor lay in the range of 1 to 10 nM. Moreover, in test [1] (5 day incubation), the Dmax is more than 75%.
Regarding `O=C1CCC(n2ncc(Oc3ccc(O[C@H]4CCN(CCOc5ccc([C@H]6c7ccc(O)cc7CC[C@H]6c6ccc(F)cc6)cc5)C4)nc3)cc2=O)C(=O)N1` (mixture of isomers) [PROTAC-93, rac-3-(4-((6-(((R)-1-(2-(4-((1R,2S)-2-(4-fluorophenyl)-6-hydroxy-1,2,3,4-tetrahydronaphthalen-1-yl)phenoxy)ethyl)pyrrolidin-3-yl)oxy)pyridin-3-yl)oxy)-6-oxopyridazin-1(6H)-yl)piperidine-2,6-dione], the IC50 with estrogen receptor fell in the range of 10 to 100 nM. The Dmax in test [1] (3 day incubation) is not above 50%.
Turning to `O=C1CCC(n2ncc(N3CCN(CCCCCOc4ccc([C@@H]5c6ccc(O)cc6CC[C@@H]5c5ccccc5)cc4)CC3)cc2=O)C(=O)N1` (mixture of isomers) [PROTAC-100, rac-3-(4-(4-(5-(4-((1R,2S)-6-hydroxy-2-phenyl-1,2,3,4-tetrahydronaphthalen-1-yl)phenoxy)pentyl)piperazin-1-yl)-6-oxopyridazin-1(6H)-yl)piperidine-2,6-dione], the IC50 in the test on estrogen receptor is 1 to 10 nM. Besides, the Dmax in test [1] (5 day incubation) lay within 50 to 75%.
`O=C1CCC(n2cc(-c3ccc(N4CCN(CCCOc5ccc([C@@H]6c7ccc(O)cc7CC[C@@H]6c6ccccc6)cc5)CC4)nc3)cn2)C(=O)N1` (mixture of isomers) [PROTAC-111, rac-3-(4-(6-(4-(3-(4-((1R,2S)-6-hydroxy-2-phenyl-1,2,3,4-tetrahydronaphthalen-1-yl)phenoxy)propyl)piperazin-1-yl)pyridin-3-yl)-1H-pyrazol-1-yl) piperidine-2,6-dione]: the IC50 with estrogen receptor was less than 1 nM. In test [1] (5 day incubation), the Dmax was not above 50%.
On to `Cc1nc2c(OCCN3CCN(CCOc4ccc(Oc5c(-c6ccc(Br)cc6)sc6cc(O)ccc56)cc4)CC3)cccc2c(=O)n1C1CCC(=O)NC1=O` (centres unmarked) [PROTAC-108, 3-(8-(2-(4-(2-(4-((2-(4-bromophenyl)-6-hydroxybenzo[b]thiophen-3-yl)oxy)phenoxy)ethyl)piperazin-1-yl)ethoxy)-2-methyl-4-oxoquinazolin-3(4H)-yl)piperidine-2,6-dione], for which, in the test on estrogen receptor, the IC50 lay in the range of 1 to 10 nM. Besides, the Dmax in test [1] (3 day incubation) is not above 50%.
Consider `O=C1CCC(n2ncc(Oc3ccc(N4CCN(CCOc5ccc([C@@H]6c7ccc(O)cc7CC[C@@H]6c6ccc(F)cc6)cc5)CC4)nc3)cc2=O)C(=O)N1` (mixture of isomers) [PROTAC-96, rac-3-(4-((6-(4-(2-(4-((1R,2S)-2-(4-fluoro-phenyl)-6-hydroxy-1,2,3,4-tetrahydro-naphthalen-1-yl)phenoxy)ethyl)piperazin-1-yl)pyridin-3-yl)oxy)-6-oxopyridazin-1(6H)-yl)piperidine-2,6-dione], for which, in the test on estrogen receptor, the IC50 is less than 1 nM. Further, the maximal degradation (Dmax) in test [1] (3 day incubation) was not above 50%.
Regarding `O=C1CCC(n2ncc(Oc3ccc(N4CCN(CCOc5ccc([C@H]6c7ccc(O)cc7CC[C@H]6c6ccc(F)cc6)cc5)CC4)nc3)cc2=O)C(=O)N1` (mixture of isomers) [PROTAC-95, rac-3-(4-((6-(4-(2-(4-((1R,2S)-2-(4-fluorophenyl)-6-hydroxy-1,2,3,4-tetrahydronaphthalen-1-yl)phenoxy)ethyl)piperazin-1-yl)pyridin-3-yl)oxy)-6-oxopyridazin-1(6H)-yl)piperidine-2,6-dione], the IC50 in the test on estrogen receptor was not below 100 nM. Further, the Dmax in test [1] (3 day incubation) was not above 50%.
Take `Cc1nc2c(NCCN3CCN(CCOc4ccc(Oc5c(-c6ccc(Br)cc6)sc6cc(O)ccc56)cc4)CC3)cccc2c(=O)n1C1CCC(=O)NC1=O` (centres unmarked) [PROTAC-107]: the IC50 in the test on estrogen receptor was in the range of 10 to 100 nM. Besides, the Dmax in test [1] (3 day incubation) was not above 50%.
On to `O=C1CCC(N2CC(c3ccc(N4CCN(CC5CCN(c6ccc([C@@H]7c8ccc(O)cc8CC[C@@H]7c7ccccc7)cc6)CC5)CC4)cc3)=CC2=O)C(=O)N1` (stereo partly drawn) [PROTAC-89, 3-[3-[4-[4-[[1-[4-[(1R,2S)-6-hydroxy-2-phenyl-tetralin-1-yl]phenyl]-4-piperidyl]methyl]piperazin-1-yl]phenyl]-5-oxo-2H-pyrrol-1-yl]piperidine-2,6-dione], for which the IC50 with estrogen receptor fell in the range of 1 to 10 nM. Further, the Dmax in test [1] (5 day incubation) was more than 75%.

The IC50 is the concentration that inhibits the measured activity by half. Broadly, the Dmax is the greatest extent of degradation seen.

The values are drawn from US12441708B2, “Cereblon ligands and bifunctional compounds comprising the same” (Arvinas Operations, Inc., priority 2017, dated 2025).
